SMILES strings stand for the structures. Read-outs that look alike come from different tables or passages of the source. Bounds are passed on as bounds.

The target of the assay is T1, Human BCL-XL protein (N-terminal HiBiT tagged BCL-XL in HT1080 cells) (Homo sapiens, UniProt Q07817).
T1 construct: expressed in transfected cells; host or cells: HT-1080 (ATCC CCL-121), stably transduced with lentivirus pLV-UBC-N-HiBiT-BCL-XL-PGK-puro and selected with puromycin
The assay can be described thus: HiBiT based degradation assay. Type of assay: cell-based. The note with it: HT1080 cells expressing HiBiT-BCL-XL; for Ymin (24 h) / Ymin (6 h): BCL-XL degradation normalized with DMSO control; for DC50: BCL-XL degradation. The procedure, abridged:
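This HiBiT degradation assay measured loss of BCL-XL in HT1080 cells that stably express an N-terminal HiBiT-BCL-XL fusion delivered by lentivirus. Cells were added to compound-spotted 384-well plates, and luminescence was read on a PHERAstar FSX reader. Signal was expressed relative to DMSO controls, curves were fitted by four-parameter logistic regression, and for hook-shaped curves the Ymin point served as the bottom plateau when calculating EC50.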

T1 sequence (Q07817 whole entry): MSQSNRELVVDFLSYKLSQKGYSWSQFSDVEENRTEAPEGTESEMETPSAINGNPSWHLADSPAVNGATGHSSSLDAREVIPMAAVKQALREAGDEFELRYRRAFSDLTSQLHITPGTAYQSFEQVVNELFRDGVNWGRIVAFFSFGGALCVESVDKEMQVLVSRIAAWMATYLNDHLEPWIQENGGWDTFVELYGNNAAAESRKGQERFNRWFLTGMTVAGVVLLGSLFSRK

As to `Cc1c(OCC(F)(F)CN2C[C@@H](C)N(CC(=O)Nc3ccc4c(C5CCC(=O)NC5=O)nn(C)c4c3)[C@@H](C)C2)cccc1-c1ccc(N2CCc3cccc(C(=O)Nc4nc5ccccc5s4)c3C2)nc1C(=O)O` (stereo partly drawn) [Compound 177a, 6-[8-(1,3-benzothiazol-2-ylcarbamoyl)-3,4-dihydro-1H-isoquinolin-2-yl]-3-[3-[3-[(3R,5S)-4-[2-[[3-(2,6-dioxo-3-piperidyl)-1-methyl-indazol-6-yl]amino]-2-oxo-ethyl]-3,5-dimethyl-piperazin-1-yl]-2,2-difluoro-propoxy]-2-methyl-phenyl]pyridine-2-carboxylic acid], the “Ymin (24 h)” value (24 h) is “B (50% ≤ Ymin < 70%)”. Where the note is “24 h, read-out: EC50 (24 h)”, the DC50 fell in the range of 100 to 1000 nM.
For `Cc1c(Oc2ccc(CCCC(=O)N3CCN(c4ccc5c(C6CCC(=O)NC6=O)nn(C)c5c4)CC3)cc2)cccc1-c1ccc(N2CCc3cccc(C(=O)Nc4nc5ccccc5s4)c3C2)nc1C(=O)O` (centres unmarked) [Compound 178, 6-(8-(benzo[d]thiazol-2-ylcarbamoyl)-3,4-dihydroisoquinolin-2(1H)-yl)-3-(3-(4-(4-(4-(3-(2,6-dioxopiperidin-3-yl)-1-methyl-1H-indazol-6-yl)piperazin-1-yl)-4-oxobutyl)phenoxy)-2-methylphenyl)picolinic acid], for the setting “24 h”, the “Ymin (24 h)” value is listed as “B (50% ≤ Ymin < 70%)”. Moreover, the DC50 (24 h, read-out: EC50 (24 h)) was under 100 nM.
With `Cc1c(OCC(F)(F)CN2C[C@@H](C)N(CC(=O)N3CCN(c4cccc5c(C6CCC(=O)NC6=O)nn(C)c45)CC3)[C@@H](C)C2)cccc1-c1ccc(N2CCc3cccc(C(=O)Nc4nc5ccccc5s4)c3C2)nc1C(=O)O` (stereo partly drawn) [Compound 179a, 6-[8-(1,3-benzothiazol-2-ylcarbamoyl)-3,4-dihydro-1H-isoquinolin-2-yl]-3-[3-[3-[(3R,5S)-4-[2-[4-[3-(2,6-dioxo-3-piperidyl)-1-methyl-indazol-7-yl]piperazin-1-yl]-2-oxo-ethyl]-3,5-dimethyl-piperazin-1-yl]-2,2-difluoro-propoxy]-2-methyl-phenyl]pyridine-2-carboxylic acid], the “Ymin (24 h)” value (24 h) was “A (Ymin < 50%)”. Moreover, the DC50 (24 h, read-out: EC50 (24 h)) was under 100 nM.
In the case of `Cc1c(OCC[C@@H]2CCCN(CC(=O)Nc3ccc4c(C5CCC(=O)NC5=O)nn(C)c4c3)C2)cccc1-c1ccc(N2CCc3cccc(C(=O)Nc4nc5ccccc5s4)c3C2)nc1C(=O)O` (stereo partly drawn) [Compound 180a, 6-(8-(benzo[d]thiazol-2-ylcarbamoyl)-3,4-dihydroisoquinolin-2(1H)-yl)-3-(3-(2-((3S)-1-(2-((3-(2,6-dioxopiperidin-3-yl)-1-methyl-1H-indazol-6-yl)amino)-2-oxoethyl)piperidin-3-yl)ethoxy)-2-methylphenyl)picolinic acid], the “Ymin (24 h)” value (24 h) is on record as “B (50% ≤ Ymin < 70%)”. Also, the DC50 (24 h, read-out: EC50 (24 h)) is under 100 nM.
In the same order, the values of `Cc1c(OCC[C@H]2CCCN(CC(=O)Nc3ccc4c(C5CCC(=O)NC5=O)nn(C)c4c3)C2)cccc1-c1ccc(N2CCc3cccc(C(=O)Nc4nc5ccccc5s4)c3C2)nc1C(=O)O` (stereo partly drawn) [Compound 180b, 6-(8-(benzo[d]thiazol-2-ylcarbamoyl)-3,4-dihydroisoquinolin-2(1H)-yl)-3-(3-(2-((3R)-1-(2-((3-(2,6-dioxopiperidin-3-yl)-1-methyl-1H-indazol-6-yl)amino)-2-oxoethyl)piperidin-3-yl)ethoxy)-2-methylphenyl)picolinic acid] are “B (50% ≤ Ymin < 70%)” and under 100 nM.
In the same order, the values of `Cc1c(OCC(F)(F)CC2CCN(CC(=O)Nc3ccc4c(C5CCC(=O)NC5=O)nn(C)c4c3)CC2)cccc1-c1ccc(N2CCc3cccc(C(=O)Nc4nc5ccccc5s4)c3C2)nc1C(=O)O` (centres unmarked) [Compound 181, 6-[8-(1,3-benzothiazol-2-ylcarbamoyl)-3,4-dihydro-1H-isoquinolin-2-yl]-3-[3-[3-[1-[2-[[3-(2,6-dioxo-3-piperidyl)-1-methyl-indazol-6-yl]amino]-2-oxo-ethyl]-4-piperidyl]-2,2-difluoro-propoxy]-2-methyl-phenyl]pyridine-2-carboxylic acid] are “A (Ymin < 50%)” and under 100 nM.
As to `Cc1c(O[C@H]2CC[C@H](CC(=O)N3CCN(c4cccc5c(C6CCC(=O)NC6=O)nn(C)c45)CC3)CC2)cccc1-c1ccc(N2CCc3cccc(C(=O)Nc4nc5ccccc5s4)c3C2)nc1C(=O)O` (some centres unmarked) [Compound 182a, 6-(8-(benzo[d]thiazol-2-ylcarbamoyl)-3,4-dihydroisoquinolin-2(1H)-yl)-3-(3-(((1r,4r)-4-(2-(4-(3-(2,6-dioxopiperidin-3-yl)-1-methyl-1H-indazol-7-yl)piperazin-1-yl)-2-oxoethyl)cyclohexyl)oxy)-2-methylphenyl)picolinic acid], the “Ymin (24 h)” value (24 h) is given as “B (50% ≤ Ymin < 70%)”. The DC50 (24 h, read-out: EC50 (24 h)) is under 100 nM.
Take `Cc1cc(OCCCN2C[C@@H](C)N(CC(=O)N3CCN(c4cccc5c(C6CCC(=O)NC6=O)nn(C)c45)CC3)[C@@H](C)C2)ccc1-c1ccc(N2CCc3cccc(C(=O)Nc4nc5ccccc5s4)c3C2)nc1C(=O)O` (stereo partly drawn) [Compound 183a, 6-[8-(1,3-benzothiazol-2-ylcarbamoyl)-3,4-dihydro-1H-isoquinolin-2-yl]-3-[4-[3-[(3S,5R)-4-[2-[4-[3-(2,6-dioxo-3-piperidyl)-1-methyl-indazol-7-yl]piperazin-1-yl]-2-oxo-ethyl]-3,5-dimethyl-piperazin-1-yl]propoxy]-2-methyl-phenyl]pyridine-2-carboxylic acid]: the “Ymin (6 h)” value (6 h) is “B (50% ≤ Ymin < 70%)”. Moreover, the “Ymin (24 h)” value (24 h) is given as “A (Ymin < 50%)”. Also, the DC50 by setting is: (6 h, read-out: EC50 (6 h)) under 100 nM; (24 h, read-out: EC50 (24 h)) under 100 nM.
Consider `Cc1cc(OCCCC2CCN(CC(=O)Nc3ccc4c(C5CCC(=O)NC5=O)nn(C)c4c3)CC2)ccc1-c1ccc(N2CCc3cccc(C(=O)Nc4nc5ccccc5s4)c3C2)nc1C(=O)O` (centres unmarked) [Compound 184, 6-[8-(1,3-benzothiazol-2-ylcarbamoyl)-3,4-dihydro-1H-isoquinolin-2-yl]-3-[4-[3-[1-[2-[[3-(2,6-dioxo-3-piperidyl)-1-methyl-indazol-6-yl]amino]-2-oxo-ethyl]-4-piperidyl]propoxy]-2-methyl-phenyl]pyridine-2-carboxylic acid], for which, under “6 h”, the “Ymin (6 h)” value is listed as “A (Ymin < 50%)”. Further, the “Ymin (24 h)” value (24 h) is “A (Ymin < 50%)”. In addition, the DC50 is under 100 nM (6 h, read-out: EC50 (6 h)) and under 100 nM (24 h, read-out: EC50 (24 h)).
With `Cc1c(OCC(F)(F)CN2C[C@@H](C)N(CC(=O)N3CCN(c4ccc5c(C6CCC(=O)NC6=O)nn(C)c5c4)CC3)[C@@H](C)C2)cccc1-c1ccc(N2CCc3cccc(C(=O)Nc4nc5ccccc5s4)c3C2)nc1C(=O)O` (stereo partly drawn) [Compound 185a, 6-[8-(1,3-benzothiazol-2-ylcarbamoyl)-3,4-dihydro-1H-isoquinolin-2-yl]-3-[3-[3-[(3R,5S)-4-[2-[4-[3-(2,6-dioxo-3-piperidyl)-1-methyl-indazol-6-yl]piperazin-1-yl]-2-oxo-ethyl]-3,5-dimethyl-piperazin-1-yl]-2,2-difluoro-propoxy]-2-methyl-phenyl]pyridine-2-carboxylic acid], the “Ymin (24 h)” value (24 h) was “A (Ymin < 50%)”. For the same compound, the DC50 (24 h, read-out: EC50 (24 h)) was under 100 nM.
On to `Cc1c(OCCCC[C@@H]2CCCN(CC(=O)Nc3cccc4c(C5CCC(=O)NC5=O)nn(C)c34)C2)cccc1-c1ccc(N2CCc3cccc(C(=O)Nc4nc5ccccc5s4)c3C2)nc1C(=O)O` (stereo partly drawn) [Compound 186a, 6-[8-(1,3-benzothiazol-2-ylcarbamoyl)-3,4-dihydro-1H-isoquinolin-2-yl]-3-[3-[4-[(3R)-1-[2-[[3-(2,6-dioxo-3-piperidyl)-1-methyl-indazol-7-yl]amino]-2-oxo-ethyl]-3-piperidyl]butoxy]-2-methyl-phenyl]pyridine-2-carboxylic acid], for which the “Ymin (24 h)” value (24 h) is given as “B (50% ≤ Ymin < 70%)”. In addition, the DC50 (24 h, read-out: EC50 (24 h)) is under 100 nM.
Regarding `Cc1c(OCCCC[C@H]2CCCN(CC(=O)Nc3cccc4c(C5CCC(=O)NC5=O)nn(C)c34)C2)cccc1-c1ccc(N2CCc3cccc(C(=O)Nc4nc5ccccc5s4)c3C2)nc1C(=O)O` (stereo partly drawn) [Compound 186b, 6-[8-(1,3-benzothiazol-2-ylcarbamoyl)-3,4-dihydro-1H-isoquinolin-2-yl]-3-[3-[4-[(3S)-1-[2-[[3-(2,6-dioxo-3-piperidyl)-1-methyl-indazol-7-yl]amino]-2-oxo-ethyl]-3-piperidyl]butoxy]-2-methyl-phenyl]pyridine-2-carboxylic acid], the “Ymin (24 h)” value (24 h) was “C (Ymin ≥ 70%)”. Under “24 h, read-out: EC50 (24 h)”, the DC50 lay within 1000 to 10000 nM.
Consider `Cc1c(OCCCN2CCN(CC(=O)Nc3ccc4c(C5CCC(=O)NC5=O)nn(C)c4c3)[C@H](C(F)(F)F)C2)cccc1-c1ccc(N2CCc3cccc(C(=O)Nc4nc5ccccc5s4)c3C2)nc1C(=O)O` (stereo partly drawn) [Compound 187a, 6-(8-(benzo[d]thiazol-2-ylcarbamoyl)-3,4-dihydroisoquinolin-2(1H)-yl)-3-(3-(3-((3S)-4-(2-((3-(2,6-dioxopiperidin-3-yl)-1-methyl-1H-indazol-6-yl)amino)-2-oxoethyl)-3-(trifluoromethyl)piperazin-1-yl)propoxy)-2-methylphenyl)picolinic acid], for which the “Ymin (6 h)” value (6 h) is listed as “B (50% ≤ Ymin < 70%)”. Also, the “Ymin (24 h)” value (24 h) was “B (50% ≤ Ymin < 70%)”. For the same compound, the DC50 reads like this: (6 h, read-out: EC50 (6 h)) 100 to 1000 nM; (24 h, read-out: EC50 (24 h)) under 100 nM.

(Values after patent US20240238423A9, “TETRAHYDROISOQUINOLINE HETEROBIFUNCTIONAL BCL-XL DEGRADERS” (Treeline Biosciences, Inc., priority 2022, published 2024).)
